The text below walks through data of ChEMBL document CHEMBL5724914, “Linking interpersonal differences in gut microbiota composition and drug biotransformation activity” (2024).

The conditions of data set [1]: human gut metagenome, 24 h, 2 µM.
Data set [2] in a line: The drug is tested on Z-028 corresponding to mouse gut metagenome with ENA study accession number: PRJEB37062 and ENA sample accession number: ERS12561827 for biotransformation under anaerobic condition. The drug concentrations were measured over 9 timepoints collected between 0 and 24 hours of incubation by liquid-chromatography-coupled mass spectrometry (LC–MS). The following applies: 2 µM.

The conditions of data set [3]: human gut metagenome, 24 h, 2 µM. The source holds these as a separate data set.
A short description of data set [4]: The drug is tested on Z-003 corresponding to pig gut metagenome with ENA study accession number: PRJEB37062 and ENA sample accession number: ERS12561803 for biotransformation under anaerobic condition. The drug concentrations were measured over 9 timepoints collected between 0 and 24 hours of incubation by liquid-chromatography-coupled mass spectrometry (LC–MS). Particulars: 2 µM.

The nature of data set [5]: The drug is tested on WLS-006 corresponding to human gut metagenome with ENA study accession number: PRJEB37062 and ENA sample accession number: ERS12561741 for biotransformation under anaerobic condition. The drug concentrations were measured over 9 timepoints collected between 0 and 24 hours of incubation by liquid-chromatography-coupled mass spectrometry (LC–MS). The following applies: 2 µM.

A short description of data set [6]: The drug is tested on Z-018 corresponding to pig gut metagenome with ENA study accession number: PRJEB37062 and ENA sample accession number: ERS12561817 for biotransformation under anaerobic condition. The drug concentrations were measured over 9 timepoints collected between 0 and 24 hours of incubation by liquid-chromatography-coupled mass spectrometry (LC–MS). The following applies: 2 µM.

For data set [7] the following is noted: human gut metagenome, 24 h, 2 µM. The source holds these as a separate data set.
The conditions of data set [8]: human gut metagenome, 24 h, 2 µM. The source holds these as a separate data set.
Data set [9] is described as follows: The drug is tested on Z-026 corresponding to metagenome with ENA study accession number: PRJEB37062 and ENA sample accession number: ERS12561825 for biotransformation under anaerobic condition. The drug concentrations were measured over 9 timepoints collected between 0 and 24 hours of incubation by liquid-chromatography-coupled mass spectrometry (LC–MS). The following applies: 2 µM.

The nature of data set [10]: The drug is tested on Z-002 corresponding to rabbit gut metagenome with ENA study accession number: PRJEB37062 and ENA sample accession number: ERS12561802 for biotransformation under anaerobic condition. The drug concentrations were measured over 9 timepoints collected between 0 and 24 hours of incubation by liquid-chromatography-coupled mass spectrometry (LC–MS). Particulars: 2 µM.

Data set [11] in a line: The drug is tested on WLS-220 corresponding to human gut metagenome with ENA study accession number: PRJEB37062 and ENA sample accession number: ERS12561769 for biotransformation under anaerobic condition. The drug concentrations were measured over 9 timepoints collected between 0 and 24 hours of incubation by liquid-chromatography-coupled mass spectrometry (LC–MS). The following applies: 2 µM.

Data set [12] in a line: The drug is tested on Z-008 corresponding to metagenome with ENA study accession number: PRJEB37062 and ENA sample accession number: ERS12561808 for biotransformation under anaerobic condition. The drug concentrations were measured over 9 timepoints collected between 0 and 24 hours of incubation by liquid-chromatography-coupled mass spectrometry (LC–MS). Particulars: 2 µM.

The conditions of data set [13]: human gut metagenome, 24 h, 2 µM. The source holds these as a separate data set.
Data set [14] in a line: The drug is tested on Z-017 corresponding to mouse gut metagenome with ENA study accession number: PRJEB37062 and ENA sample accession number: ERS12561816 for biotransformation under anaerobic condition. The drug concentrations were measured over 9 timepoints collected between 0 and 24 hours of incubation by liquid-chromatography-coupled mass spectrometry (LC–MS). The following applies: 2 µM.

Data set [15] can be described thus: The drug is tested on Z-019 corresponding to rat gut metagenome with ENA study accession number: PRJEB37062 and ENA sample accession number: ERS12561818 for biotransformation under anaerobic condition. The drug concentrations were measured over 9 timepoints collected between 0 and 24 hours of incubation by liquid-chromatography-coupled mass spectrometry (LC–MS). The following applies: 2 µM.

Data set [16] in a line: The drug is tested on Z-014 corresponding to rat gut metagenome with ENA study accession number: PRJEB37062 and ENA sample accession number: ERS12561814 for biotransformation under anaerobic condition. The drug concentrations were measured over 9 timepoints collected between 0 and 24 hours of incubation by liquid-chromatography-coupled mass spectrometry (LC–MS). Particulars: 2 µM.

For data set [17] the following is noted: human gut metagenome, 24 h, 2 µM. The source holds these as a separate data set.
For data set [18] the following is noted: human gut metagenome, 24 h, 2 µM. This is another data set of the same source.
The nature of data set [19]: The drug is tested on WLS-086 corresponding to human gut metagenome with ENA study accession number: PRJEB37062 and ENA sample accession number: ERS12561752 for biotransformation under anaerobic condition. The drug concentrations were measured over 9 timepoints collected between 0 and 24 hours of incubation by liquid-chromatography-coupled mass spectrometry (LC–MS). The following applies: 2 µM.

For data set [20] the following is noted: human gut metagenome, 24 h, 2 µM. The source holds these as a separate data set.
Note: call rule not given here.

Take `CCCc1nn(C)c2c(=O)[nH]c(-c3cc(S(=O)(=O)N4CCN(C)CC4)ccc3OCC)nc12.O=C(O)CC(O)(CC(=O)O)C(=O)O` [SILDENAFIL CITRATE]: the “Bacterial Biotransformation” value in data set [1] is listed as “Compound NOT metabolized”; in data set [2], “Compound NOT metabolized”; in data set [3], “Compound metabolized”; in data set [4], “Compound NOT metabolized”; in [5] it was “Compound metabolized”; in data set [6] it was “Compound NOT metabolized”. Besides, the “Bacterial Biotransformation” value was “Compound metabolized” in data set [7]; “Compound metabolized” in [8]; “Compound NOT metabolized” in [9]; “Compound NOT metabolized” in data set [10]; “Compound NOT metabolized” in data set [11]; “Compound NOT metabolized” in data set [12]. Moreover, the “Bacterial Biotransformation” value in [13] is “Compound NOT metabolized”; in data set [14], “Compound NOT metabolized”; in data set [15] it was “Compound NOT metabolized”; in data set [16], “Compound NOT metabolized”; in data set [17], “Compound metabolized”; in data set [18] it was “Compound NOT metabolized”. The “Bacterial Biotransformation” value is “Compound metabolized” in [19] and “Compound NOT metabolized” in [20].

For the compound `COc1ccc2[nH]c([S+]([O-])Cc3ncc(C)c(OC)c3C)nc2n1` (stereo not given) [TENATOPRAZOLE], the “Bacterial Biotransformation” value in data set [1] is reported as “Compound NOT metabolized”; in [2], “Compound metabolized”; in data set [3] it was “Compound NOT metabolized”; in data set [4], “Compound metabolized”; in data set [5] it was “Compound metabolized”; in data set [6], “Compound metabolized”. Also, the “Bacterial Biotransformation” value is on record as “Compound NOT metabolized” in data set [7]; “Compound NOT metabolized” in data set [8]; “Compound metabolized” in [9]; “Compound NOT metabolized” in data set [10]; “Compound metabolized” in [11]; “Compound metabolized” in [12]. The “Bacterial Biotransformation” value in data set [13] is listed as “Compound NOT metabolized”; in data set [14] it was “Compound metabolized”; in data set [15] it was “Compound metabolized”; in [16], “Compound metabolized”; in [17], “Compound metabolized”; in data set [18], “Compound metabolized”. The “Bacterial Biotransformation” value in data set [19] and in data set [20] was “Compound metabolized” in each case.

As to `CN1C(C(=O)Nc2ccccn2)=C(O)c2sccc2S1(=O)=O` [TENOXICAM], the “Bacterial Biotransformation” value in data set [1], in data set [2], in data set [3], in data set [4], in data set [5] and in data set [6] was “Compound NOT metabolized” throughout. Moreover, the “Bacterial Biotransformation” value in [7], in data set [8], in data set [9], in data set [10], in data set [11] and in [12] was “Compound NOT metabolized” each time. Also, the “Bacterial Biotransformation” value in data set [13], in data set [14], in [15], in [16], in data set [17] and in data set [18] was “Compound NOT metabolized” each time. Besides, the “Bacterial Biotransformation” value in data set [19] and in [20] was “Compound NOT metabolized” each time.
